System: K24384-001-R-PDC complex spheroid viability
Assay: Anticancer human tumor K24384-001-R-PDC patient-derived pancreatic adenocarcinoma cell line growth inhibition
Settings: for IC50: curve of first compound; for viability, T/C: stronger effect = lower value
Procedure, shortened: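 Drug combinations with the LSD1 inhibitor iadademstat tested on tumor cells co-cultured as spheroids with endothelial cells and mesenchymal stem cells. Concentrations descended in half-log increments from clinical Cmax or 10 microM.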

[1] = second compound 0.1 µM, first compound 0.0316 µM
[2] = second compound 0.1 µM, first compound 0.1 µM
[3] = second compound 0.1 µM, first compound 0.316 µM
[4] = second compound 0.1 µM, first compound 1 µM
[5] = second compound 0.1 µM, first compound 3.16 µM
[6] = second compound 0.1 µM, first compound 10 µM
[7] = second compound 0.316 µM, first compound 0.0316 µM
[8] = second compound 0.316 µM, first compound 0.1 µM
[9] = second compound 0.316 µM, first compound 0.316 µM
[10] = second compound 0.316 µM, first compound 1 µM
[11] = second compound 0.316 µM, first compound 3.16 µM
[12] = second compound 0.316 µM, first compound 10 µM
[13] = second compound 1 µM, first compound 0.0316 µM
[14] = second compound 1 µM, first compound 0.1 µM
[15] = second compound 1 µM, first compound 0.316 µM
[16] = second compound 1 µM, first compound 1 µM
[17] = second compound 1 µM, first compound 3.16 µM
[18] = second compound 1 µM, first compound 10 µM
[19] = second compound 3.16 µM, first compound 0.0316 µM
[20] = second compound 3.16 µM, first compound 0.1 µM
[21] = second compound 3.16 µM, first compound 0.316 µM
[22] = second compound 3.16 µM, first compound 1 µM
[23] = second compound 3.16 µM, first compound 3.16 µM
[24] = second compound 3.16 µM, first compound 10 µM
[25] = second compound 10 µM, first compound 0.0316 µM
[26] = second compound 10 µM, first compound 0.1 µM
[27] = second compound 10 µM, first compound 0.316 µM
[28] = second compound 10 µM, first compound 1 µM
[29] = second compound 10 µM, first compound 3.16 µM
[30] = second compound 10 µM, first compound 10 µM
[31] = second compound 0.1 µM, first compound 0.00949 µM
[32] = second compound 0.1 µM, first compound 0.03 µM
[33] = second compound 0.1 µM, first compound 0.0949 µM
[34] = second compound 0.1 µM, first compound 0.3 µM
[35] = second compound 0.316 µM, first compound 0.00949 µM
[36] = second compound 0.316 µM, first compound 0.03 µM
[37] = second compound 0.316 µM, first compound 0.0949 µM
[38] = second compound 0.316 µM, first compound 0.3 µM
[39] = second compound 1 µM, first compound 0.00949 µM
[40] = second compound 1 µM, first compound 0.03 µM
[41] = second compound 1 µM, first compound 0.0949 µM
[42] = second compound 1 µM, first compound 0.3 µM
[43] = second compound 3.16 µM, first compound 0.00949 µM
[44] = second compound 3.16 µM, first compound 0.03 µM
[45] = second compound 3.16 µM, first compound 0.0949 µM
[46] = second compound 3.16 µM, first compound 0.3 µM
[47] = second compound 10 µM, first compound 0.00949 µM
[48] = second compound 10 µM, first compound 0.03 µM
[49] = second compound 10 µM, first compound 0.0949 µM
[50] = second compound 10 µM, first compound 0.3 µM
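Also: spheroids exposed to agents for seven days before luminescence viability reading.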
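For viability, T/C in this document: 100% = DMSO vehicle control viability.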

Structure (SMILES): CC1(C)CCC(CN2CCN(c3ccc(C(=O)NS(=O)(=O)c4ccc(NCC5CCOCC5)c([N+](=O)[O-])c4)c(Oc4cnc5[nH]ccc5c4)c3)CC2)=C(c2ccc(Cl)cc2)C1 + NC1CC1c1ccc(-c2cccc(O)c2)cc1
- IC50 (second compound 0.1 µM): 3350 nM
- IC50 (second compound 0.316 µM): 2600 nM
- IC50 (second compound 1 µM): 2680 nM
- IC50 (second compound 3.16 µM): 2690 nM
- IC50 (second compound 10 µM): 1950 nM
- viability, T/C [1]: 90.7%
- viability, T/C [2]: 83.9%
- viability, T/C [3]: 88.3%
- viability, T/C [4]: 87.6%
- viability, T/C [5]: 52.6%
- viability, T/C [6]: 0.98%
- viability, T/C [7]: 82.7%
- viability, T/C [8]: 76.7%
- viability, T/C [9]: 90%
- viability, T/C [10]: 80.4%
- viability, T/C [11]: 43.7%
- viability, T/C [12]: 1.07%
- viability, T/C [13]: 91.5%
- viability, T/C [14]: 63.7%
- viability, T/C [15]: 63.8%
- viability, T/C [16]: 83.3%
- viability, T/C [17]: 45.7%
- viability, T/C [18]: 0.94%
- viability, T/C [19]: 83.3%
- viability, T/C [20]: 93.2%
- viability, T/C [21]: 78.8%
- viability, T/C [22]: 71%
- viability, T/C [23]: 46.9%
- viability, T/C [24]: 0.99%
- viability, T/C [25]: 86.3%
- viability, T/C [26]: 81.5%
- viability, T/C [27]: 67.9%
- viability, T/C [28]: 62.4%
- viability, T/C [29]: 44.4%
- viability, T/C [30]: 1%

Structure (SMILES): CC1COCCN1c1cc(C2(S(C)(=N)=O)CC2)nc(-c2ccnc3[nH]ccc23)n1 (stereo not given) + NC1CC1c1ccc(-c2cccc(O)c2)cc1
- IC50 (second compound 0.1 µM): 1550 nM
- IC50 (second compound 0.316 µM): 1380 nM
- IC50 (second compound 1 µM): 1180 nM
- IC50 (second compound 3.16 µM): 1320 nM
- IC50 (second compound 10 µM): 776 nM
- viability, T/C [1]: 89.4%
- viability, T/C [2]: 108%
- viability, T/C [3]: 95.3%
- viability, T/C [4]: 58.8%
- viability, T/C [5]: 33.7%
- viability, T/C [6]: 38.1%
- viability, T/C [7]: 85.8%
- viability, T/C [8]: 85.9%
- viability, T/C [9]: 72.3%
- viability, T/C [10]: 57.7%
- viability, T/C [11]: 34%
- viability, T/C [12]: 36.4%
- viability, T/C [13]: 79.5%
- viability, T/C [14]: 73.9%
- viability, T/C [15]: 76.5%
- viability, T/C [16]: 53%
- viability, T/C [17]: 29.1%
- viability, T/C [18]: 34.1%
- viability, T/C [19]: 82.4%
- viability, T/C [20]: 77.4%
- viability, T/C [21]: 73.2%
- viability, T/C [22]: 56.7%
- viability, T/C [23]: 27.9%
- viability, T/C [24]: 32%
- viability, T/C [25]: 87.7%
- viability, T/C [26]: 81.5%
- viability, T/C [27]: 70%
- viability, T/C [28]: 45.2%
- viability, T/C [29]: 29.1%
- viability, T/C [30]: 31.1%

Structure (SMILES): CCN(c1cc(-c2ccc(CN3CCOCC3)cc2)cc(C(=O)NCc2c(C)cc(C)[nH]c2=O)c1C)C1CCOCC1 + NC1CC1c1ccc(-c2cccc(O)c2)cc1
- IC50 (second compound 0.1 µM): > 3000 nM
- IC50 (second compound 0.316 µM): > 3000 nM
- IC50 (second compound 1 µM): > 3000 nM
- IC50 (second compound 3.16 µM): > 3000 nM
- IC50 (second compound 10 µM): > 3000 nM
- viability, T/C [31]: 113%
- viability, T/C [32]: 115%
- viability, T/C [33]: 102%
- viability, T/C [34]: 103%
- viability, T/C (second compound 0.1 µM, first compound 0.949 µM): 98.9%
- viability, T/C (second compound 0.1 µM, first compound 3 µM): 62.8%
- viability, T/C [35]: 113%
- viability, T/C [36]: 104%
- viability, T/C [37]: 118%
- viability, T/C [38]: 103%
- viability, T/C (second compound 0.316 µM, first compound 0.949 µM): 94.2%
- viability, T/C (second compound 0.316 µM, first compound 3 µM): 71.8%
- viability, T/C [39]: 100%
- viability, T/C [40]: 112%
- viability, T/C [41]: 107%
- viability, T/C [42]: 95.8%
- viability, T/C (second compound 1 µM, first compound 0.949 µM): 96.7%
- viability, T/C (second compound 1 µM, first compound 3 µM): 65.5%
- viability, T/C [43]: 109%
- viability, T/C [44]: 126%
- viability, T/C [45]: 108%
- viability, T/C [46]: 111%
- viability, T/C (second compound 3.16 µM, first compound 0.949 µM): 96.2%
- viability, T/C (second compound 3.16 µM, first compound 3 µM): 69.7%
- viability, T/C [47]: 127%
- viability, T/C [48]: 132%
- viability, T/C [49]: 109%
- viability, T/C [50]: 127%
- viability, T/C (second compound 10 µM, first compound 0.949 µM): 104%
- viability, T/C (second compound 10 µM, first compound 3 µM): 77.6%

Structure (SMILES): Nc1ncn(C2CC(O)C(CO)S2)c(=O)n1 (stereo not given) + NC1CC1c1ccc(-c2cccc(O)c2)cc1
- IC50 (second compound 0.1 µM): > 300 nM
- IC50 (second compound 0.316 µM): > 300 nM
- IC50 (second compound 1 µM): > 300 nM
- IC50 (second compound 3.16 µM): > 300 nM
- IC50 (second compound 10 µM): > 300 nM
- viability, T/C (second compound 0.1 µM, first compound 0.000949 µM): 102%
- viability, T/C (second compound 0.1 µM, first compound 0.003 µM): 133%
- viability, T/C [31]: 101%
- viability, T/C [32]: 89.8%
- viability, T/C [33]: 67.3%
- viability, T/C [34]: 54.9%
- viability, T/C (second compound 0.316 µM, first compound 0.000949 µM): 102%
- viability, T/C (second compound 0.316 µM, first compound 0.003 µM): 97.1%
- viability, T/C [35]: 103%
- viability, T/C [36]: 87.1%
- viability, T/C [37]: 72.2%
- viability, T/C [38]: 52.1%
- viability, T/C (second compound 1 µM, first compound 0.000949 µM): 124%
- viability, T/C (second compound 1 µM, first compound 0.003 µM): 110%
- viability, T/C [39]: 99.2%
- viability, T/C [40]: 87.8%
- viability, T/C [41]: 73.1%
- viability, T/C [42]: 50.6%
- viability, T/C (second compound 3.16 µM, first compound 0.000949 µM): 108%
- viability, T/C (second compound 3.16 µM, first compound 0.003 µM): 113%
- viability, T/C [43]: 108%
- viability, T/C [44]: 108%
- viability, T/C [45]: 92.6%
- viability, T/C [46]: 56.2%
- viability, T/C (second compound 10 µM, first compound 0.000949 µM): 136%
- viability, T/C (second compound 10 µM, first compound 0.003 µM): 131%
- viability, T/C [47]: 120%
- viability, T/C [48]: 108%
- viability, T/C [49]: 95.3%
- viability, T/C [50]: 57.2%

From PubChem BioAssay AID1918949 (Molecular Pharmacology Branch, DTP, NCI, 2023)
